Data from patent US20090305995A1, “AGONISTS AND ANTAGONISTS OF THE SOMATOSTATIN RECEPTOR” (Novartis AG, priority 2004, published 2009).
≈ marks a conversion by molar mass, not a printed value. Where two headings read alike, the source gives them in different places.

Tests used:
hsst4 receptor = biological target: T1, hsst4 receptor (Homo sapiens, UniProt P31391); test: radioligand-binding displacement assay ([125I]LTT-SRIF28), receptor expressed in CCL39 cells; details: for Kd: hsst4, [125I]LTT-SRIF28 displacement
T1 construct: expressed in transfected cells; host or cells: Chinese hamster lung fibroblast (CCL39) cells
T1 sequence (P31391 whole entry): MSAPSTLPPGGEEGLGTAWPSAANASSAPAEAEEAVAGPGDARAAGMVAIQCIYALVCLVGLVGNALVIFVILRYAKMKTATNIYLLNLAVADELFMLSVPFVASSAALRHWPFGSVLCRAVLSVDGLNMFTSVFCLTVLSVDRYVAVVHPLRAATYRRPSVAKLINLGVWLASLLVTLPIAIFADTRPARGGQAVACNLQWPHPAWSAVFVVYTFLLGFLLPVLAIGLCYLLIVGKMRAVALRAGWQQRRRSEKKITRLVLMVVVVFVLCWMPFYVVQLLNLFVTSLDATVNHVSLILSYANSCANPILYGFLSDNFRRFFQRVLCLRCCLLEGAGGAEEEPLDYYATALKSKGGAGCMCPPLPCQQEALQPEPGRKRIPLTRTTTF
Experimental: The generated peptides are tested for their affinity to bind to human SRIF receptors expressed in Chinese hamster lung fibroblast (CCL39) cells. This is achieved in radioligand-binding assays, a displacement experiment in which the concentration of a substance is measured which is necessary for the replacement of 50% of a specifically bound radioligand ([^125I]LTT-SRIF28). Specific binding is measured as the total binding of receptor-specific radioligand minus the amount of radioligand bound in presence of unmarked SRIF-14 (100 nM, nonspecific binding).

[1] = high throughput solubility (HT-Solubility); type: physicochemical; details: for water solubility (in words): see FIG. 10
[2] = high throughput permeability (HT-Permeability, log Pe); type: physicochemical; details: PAMPA, Pe in cm/s
[3] = HT-logP o/w, high throughput assay based on artificial liquid membrane permeability; type: physicochemical; details: octanol/water, read-out: HT LogP ohw
Source text: To be absorbed and transported by passive diffusion, drugs must be sufficiently lipophilic to penetrate the lipid cores of membranes, but not too lipophilic that they get retained and accumulated there. The lipophilictity of a compound is expressed by the octanol/water partition coefficient or distribution coefficient. A first approximation of substance polarity can either be given by computer assisted calculations giving Clog P values or by measurement of the partition coefficients in high-throughput assays (HT-log P o/w) (Faller et al., 2004; Wohnsland et al., 2001).
Octanol/water partition coefficients are measured in a high throughput assay based on artificial liquid membrane permeability. […] Still many approaches to calculate log P values are limited due to a lack of parameterization of certain fragments and fail with increasing molecular weight which implicates higher structural complexity. Similar problems and failures are observed in chromatographic determinations of log P: Peptides might undergo structural changes driven by interactions with the stationary phase. Decisive interactions between the stationary phase and the defolded analytes are therefore also based on the linear peptide sequence. For this reason measured HT-log P o/w values based on chromatographic assays employing stationary phases may lead to erroneous results.

[4] = pH 1, pH 1.0, read-out: HT-Solubility pH 1.0
[5] = pH 6.8, pH 6.8, read-out: HT-Solubility pH 6.8
[6] = pH 4, pH 4.0, read-out: HT-Permeability logPe pH 4.0 (converted)
[7] = pH 6.8, pH 6.8, read-out: HT-Permeability logPe pH 6.8 (converted)
[8] = pH 8, pH 8.0, read-out: HT-Permeability logPe pH 8.0 (converted)

| Compound | Kd (hsst4 receptor) | solubility [1, 4] | solubility [1, 5] | water solubility (in words) [1] | Papp [2, 6] | Papp [2, 7] | Papp [2, 8] | logP [3] | binding affinity to hsst4 (in words) (hsst4 receptor) | HT-Solubility pH 6.8 ([1]; pH 6.8) |
| --- | --- | --- | --- | --- | --- | --- | --- | --- | --- | --- |
| CCCCNC(=O)C[C@H](CCCCN)NC(=O)[C@@H](Cc1c[nH]c2ccccc12)NC(=O)C[C@H](Cc1ccccc1)NC(C)=O [Compound 52, Ace-(S)-β^3-HPhe-(R)-Trp-(S)-β^3-HLys-butyl-amide] | 16 nM | 121 µg/mL (≈ 200 µM) | 121 µg/mL (≈ 200 µM) | medium to good | 6.31 ×10⁻⁶ cm/s | 1.58 ×10⁻⁶ cm/s | 1 ×10⁻⁶ cm/s | 3.1 | – | – |
| CCCCCNC(=O)C[C@H](CCCCN)NC(=O)[C@@H](Cc1c[nH]c2ccccc12)N(C)C(=O)C[C@H](Cc1ccccc1)NC(=O)CC [Compound 70, Propionyl-(S)-β^3-HPhe-(R)—N-Me-Trp-(S)-β^3-HLys-pentyl-amide] | 35 nM | 129 µg/mL (≈ 200 µM) | 129 µg/mL (≈ 200 µM) | highest solubility values | 5.01 ×10⁻⁶ cm/s | 3.98 ×10⁻⁶ cm/s | 12.6 ×10⁻⁶ cm/s | 3.3 | – | – |
| C[C@@H](O)[C@@H](CC(N)=O)NC(=O)C[C@H](CCCCN)NC(=O)[C@@H](Cc1c[nH]c2ccccc12)NC(=O)C[C@H](Cc1ccccc1)NC(=O)C12CC3CC(CC(C3)C1)C2 [Compound 18, Adamantoyl-(S)-β^3-HPhe-(R)-Trp-(S)-β^3-HLys-(R), (R)—HThr-NH2] | 6170 nM | 78.4 µg/mL (≈ 100 µM) | 15.7 µg/mL (≈ 20 µM) | – | 0.1 ×10⁻⁶ cm/s | – | – | 3.2 | – | – |
| NCCCC[C@@H](CC(=O)NC1CCCC1)NC(=O)[C@@H](Cc1c[nH]c2ccccc12)NC(=O)C[C@H](Cc1ccccc1)NC(=O)CCc1ccccc1 [Compound 32, Dihydrocinnemoyl-(S)-β^3-HPhe-(R)-Trp-(S)-β^3-HLys-cyclopentyl-amide] | 417 nM | 70.7 µg/mL (≈ 100 µM) | 14.1 µg/mL (≈ 19.9 µM) | – | 0.1 ×10⁻⁶ cm/s | – | – | 4 | – | – |
| CCCCCN(C)C(=O)C[C@H](CCCCN)NC(=O)[C@@H](Cc1c[nH]c2ccccc12)N(Cc1ccccc1)C(=O)C[C@H](Cc1ccccc1)NC(=O)CC [Compound 66, Propionyl-(S)-β^3-HPhe-(R)—N-Benzyl-Trp-(S)-β^3-HLys-methyl-pentyl-amide] | 14 nM | 147 µg/mL (≈ 200 µM) | 14.7 µg/mL (≈ 19.9 µM) | does not allow for good water solubilities | – | 7.94 ×10⁻⁶ cm/s | 3.98 ×10⁻⁶ cm/s | 5.5 | – | – |
| CCC(=O)N(C)[C@H](CC(=O)N[C@H](Cc1c[nH]c2ccccc12)C(=O)N[C@@H](CCCCN)CC(=O)NC1CCCC1)Cc1ccccc1 [Compound 46, Propionyl-N-Me-(S)-β^3-HPhe-(R)-Trp-(S)-β^3-HLys-cyclopentyl-amide] | – | 129 µg/mL (≈ 200 µM) | 129 µg/mL (≈ 200 µM) | – | 1 ×10⁻⁶ cm/s | – | – | 3.3 | lower binding affinities | – |
| C[C@H]1OC(=O)C[C@H]1NC(=O)C[C@H](CCCCN)NC(=O)[C@@H](Cc1cn(C)c2ccccc12)NC(=O)C[C@H](Cc1ccccc1)NC(=O)C12CC3CC(CC(C3)C1)C2 [Compound 20, Adamantoyl-(S)-β^3-HPhe-(R)-1-Me-Trp-(S)-β^3-HLys-(R)-4-amino-(R)-5-methyl-dihydro-furan-2-one] | 2950 nM | 15.6 µg/mL (≈ 20 µM) | 15.6 µg/mL (≈ 20 µM) | – | 0.1 ×10⁻⁶ cm/s | – | – | 2.9 | – | – |
| C[C@H]1OC(=O)C[C@H]1NC(=O)C[C@H](CCCCN)NC(=O)[C@@H](Cc1c[nH]c2ccccc12)NC(=O)C[C@H](Cc1ccccc1)NC(=O)C1CCCCC1 [Compound 5, Cyclohexanoyl-(S)-β^3-HPhe-(R)-Trp-(S)-β^3-HLys-(R)-4-amino-(R)-5-methyl-dihydro-furan-2-one] | 1200 nM | 35.7 µg/mL (≈ 49.9 µM) | 14.3 µg/mL (≈ 20 µM) | – | 0.1 ×10⁻⁶ cm/s | – | – | 3.9 | – | – |
| C[C@H]1OC(=O)C[C@H]1NC(=O)C[C@H](CCCCN)NC(=O)[C@@H](Cc1cn(C)c2ccccc12)NC(=O)C[C@H](Cc1ccccc1)NC(=O)CCc1ccccc1 [Compound 19, Dihydrocinnemoyl-(S)-β^3-HPhe-(R)-1-Me-Trp-(S)-β^3-HLys-(R)-4-amino-(R)-5-methyl-dihydro-furan-2-one] | 708 nM | 15 µg/mL (≈ 20 µM) | 15 µg/mL (≈ 20 µM) | – | 0.1 ×10⁻⁶ cm/s | – | – | 3.7 | – | – |
| CC(=O)N[C@H](CC(=O)N[C@H](Cc1c[nH]c2ccccc12)C(=O)N[C@@H](CCCCN)CC(=O)N[C@H](CC(=O)N(C)CCc1ccccc1)C(C)C)Cc1ccccc1 [Compound 25, Ac—(S)-β^3-HPhe-(R)-Trp-(S)-β^3-HLys-(R)-β^3-Leu-methyl-phenethyl-amide] | 115 nM | 78 µg/mL (≈ 100 µM) | 15.6 µg/mL (≈ 20 µM) | – | 0.1 ×10⁻⁶ cm/s | – | – | 3.3 | – | – |
| CCCCCNC(=O)C[C@H](CCCCN)NC(=O)[C@@H](Cc1c[nH]c2ccccc12)NC(=O)C[C@H](Cc1ccccc1)NC(C)=O [Compound 44] | 10 nM | 124 µg/mL (≈ 200 µM) | – | medium to good | 6.31 ×10⁻⁶ cm/s | – | 25.1 ×10⁻⁶ cm/s | 3.3 | – | 0.0309 g 1-1 |
| C[C@H]1OC(=O)C[C@H]1NC(=O)C[C@H](CCCCN)NC(=O)[C@@H](Cc1c[nH]c2ccccc12)NC(=O)C[C@H](Cc1ccccc1)NC(=O)CCc1ccccc1 [Compound 10, Dihydrocinnemoyl-(S)-β^3-HPhe-(R)-Trp-(S)-β^3-HLys-(R)-4-amino-(R)-5-methyl-dihydro-furan-2-one] | – | 36.8 µg/mL (≈ 49.9 µM) | 7.4 µg/mL (≈ 10 µM) | – | 0.1 ×10⁻⁶ cm/s | – | – | 2.7 | – | – |
| C[C@@H](O)[C@@H](CC(N)=O)NC(=O)C[C@H](CCCCN)NC(=O)[C@@H](Cc1c[nH]c2ccccc12)NC(=O)C[C@H](Cc1ccccc1)NC(=O)CCc1ccccc1 [Compound 15, Dihydrocinnemoyl-(S)-β^3-HPhe-(R)-Trp-(S)-β^3-HLys-(R), (R)—HThr-NH2] | – | 37.7 µg/mL (≈ 50 µM) | 15.1 µg/mL (≈ 20 µM) | – | 3.98 ×10⁻⁶ cm/s | 6.31 ×10⁻⁶ cm/s | 12.6 ×10⁻⁶ cm/s | 2.7 | – | – |
| CCCC(=O)N[C@H](CC(=O)N[C@H](Cc1c[nH]c2ccccc12)C(=O)N[C@@H](CCCCN)CC(=O)NC1CCCC1)Cc1ccccc1 [Compound 56, Butyroyl-(S)-β^3-HPhe-(R)-Trp-(S)-β^3-HLys-cyclopentyl-amide] | – | 129 µg/mL (≈ 200 µM) | 12.9 µg/mL (≈ 20 µM) | – | 0.1 ×10⁻⁶ cm/s | – | – | 3 | – | – |
| CCCCCCCCC(=O)N[C@H](CC(=O)N[C@H](Cc1c[nH]c2ccccc12)C(=O)N[C@@H](CCCCN)CC(=O)N[C@H](CC(N)=O)[C@@H](C)O)Cc1ccccc1 [Compound 17, Nonanoyl-(S)-β^3-HPhe-(R)-Trp-(S)-β^3-HLys-(R), (R)—HThr-NH2] | – | 15.2 µg/mL (≈ 19.9 µM) | 15.2 µg/mL (≈ 19.9 µM) | – | 12.6 ×10⁻⁶ cm/s | 2.51 ×10⁻⁶ cm/s | – | 4.2 | – | – |
| CCCCCCN(C)C(=O)C[C@H](CCCCN)NC(=O)[C@@H](Cc1c[nH]c2ccccc12)N(Cc1ccccc1)C(=O)C[C@H](Cc1ccccc1)NC(=O)CC [Compound 68] | – | 75.1 µg/mL (≈ 100 µM) | 15 µg/mL (≈ 20 µM) | does not allow for good water solubilities | 0.1 ×10⁻⁶ cm/s | – | – | 5.5 | – | – |
| CCC(=O)N[C@H](CC(=O)N[C@H](Cc1c[nH]c2ccccc12)C(=O)N[C@@H](CCCCN)CC(=O)NC1CCCC1)Cc1ccccc1 [Compound 57, Propionyl-(S)-β^3-HPhe-(R)-Trp-(S)-β^3-HLys-cyclopentyl-amide] | – | 126 µg/mL (≈ 200 µM) | 63.1 µg/mL (≈ 100 µM) | – | 1 ×10⁻⁶ cm/s | – | – | 2.8 | – | – |
| CC(=O)N[C@H](CC(=O)N(C)[C@H](Cc1cn(C)c2ccccc12)C(=O)N[C@@H](CCCCN)CC(=O)N[C@@H]1CC(=O)O[C@@H]1C)Cc1ccccc1 [Compound 37, Ac—(S)-β^3-HPhe-(R)—N-Me-1-Me-Trp-(S)-β^3-HLys-(R)-4-amino-(R)-5-methyl-dihydro-furan-2-one] | – | 135 µg/mL (≈ 200 µM) | 67.5 µg/mL (≈ 100 µM) | – | 6.31 ×10⁻⁶ cm/s | 5.01 ×10⁻⁶ cm/s | – | 2.4 | – | – |
| CCCCCCCCC(=O)N[C@H](CC(=O)N[C@H](Cc1c[nH]c2ccccc12)C(=O)N[C@@H](CCCCN)CC(=O)N[C@@H]1CC(=O)O[C@@H]1C)Cc1ccccc1 [Compound 11] | – | 14.9 µg/mL (≈ 20 µM) | 14.9 µg/mL (≈ 20 µM) | – | 0.1 ×10⁻⁶ cm/s | – | – | 3.9 | – | – |
| NCCCC[C@@H](CC(=O)NC1CCCC1)NC(=O)[C@@H](Cc1c[nH]c2ccccc12)NC(=O)C[C@H](Cc1ccccc1)NC(=O)C12CC3CC(CC(C3)C1)C2 [Compound 34, Adamantoyl-(S)-β^3-HPhe-(R)-Trp-(S)-β^3-HLys-cyclopentyl-amide] | – | 147 µg/mL (≈ 200 µM) | 73.7 µg/mL (≈ 100 µM) | – | 5.01 ×10⁻⁶ cm/s | 6.31 ×10⁻⁶ cm/s | 1.26 ×10⁻⁶ cm/s | 5.2 | – | – |
| CC(=O)N[C@H](CC(=O)N[C@H](Cc1c[nH]c2ccccc12)C(=O)N[C@@H](CCCCN)CC(=O)NC1CCCC1)Cc1ccccc1 [Compound 30] | 62 nM | – | – | – | – | – | – | – | – | – |
